Patent US20190014806A1, “Composition to Reduce the Negative Effects of Alcohol Consumption” (priority 2017, published 2019)

System: drosophila
Assay: alcohol sedation model: recovery of drosophila after acute alcohol exposure
Format: in vivo
Conditions: FIG. 1; acute alcohol exposure over time; agents in fly food at least two days before exposure
Experimental: This invention used a modified version of the alcohol sedation model disclosed by Sandhu et al to evaluate the effects of acute alcohol exposure in drosophila. For example, in one of the models, for at least two days prior to alcohol exposure, drosophila consumed standard fly food combined with placebo or investigational agents. The drosophila were then moved to empty, foam stopper-covered vials and allowed to acclimate before the foam stoppers were injected with 1 ml 100% ethanol. At different time intervals, it was noted how many drosophila in each vial lost consciousness. […] The average recovery score was calculated by averaging the recovery scores of individual drosophila. Increasing the extent of alcohol exposure led to greater alcohol toxicity, including substantial death. In the following examples, a modified version of the alcohol sedation model employed by Sandhu et al. (“An Inexpensive, Scalable Behavioral Assay for Measuring Ethanol Sedation Sensitivity and Rapid Tolerance in Drosophila,” J Vis Exp. Author manuscript; available in PMC 2016 Apr. 15) to evaluate the effects of acute alcohol exposure was used. For at least two days prior to alcohol exposure, flies consumed standard fly food combined with placebo or investigational agents. […] The average recovery score is calculated by averaging the recovery scores of individual flies. […]

Q: With NCCS(=O)(=O)O [taurine] as the compound, how does the “recovery from consumption of alcohol in comparison with no taurine added (placebo)” value read?
A: The value was “accelerates recovery from consumption of alcohol”.
